Patent US6008189A, “Intravaginal preparation containing physiologically active peptide” (Teikoku Seiyaku Kabushiki Kaisha, priority 1993, dated 1999)

What was measured:
Type in all cases: in vivo, rat
[1] = system: Ovariectomized female Wistar rats; experiment: Experiment 1: serum calcium reduction after intravaginal suppository, sucrose fatty acid ester plus citric acid versus each alone; conditions: 20 μg intravaginal
Method: To the mixture was added a commercially available base for intravaginal preparation; Witepsol S-55 (which is prepared from Witepsol E-85 so as to give a final intravaginal suppository having a melting point of 36.5° C., manufactured by Hils Co., Ltd., former Diamit Novel Co., Ltd) which was homogenized by previously warming and stirring thereof so as to give an intravaginal suppository with the total weight of 5.00 g. […] The mixture was poured into a tube (inside diameter: about 3 mm) made of teflon at about 40° C., cooled to solidify, and taken out from the tube. The solidified mixture was cut into pieces (weight: 50 mg) to give intravaginal suppositories for rats containing human calcitonin (20 μg/each). There were also obtained two kinds of intravaginal suppositories prepared by adding citric acid (50 mg) only, and prepared by adding a sucrose fatty acid ester (100 mg) only, likewise. There were obtained intravaginal suppositories containing only human calcitonin without citric acid nor a sucrose fatty acid ester, likewise, which are used as control.
(§1) An intravaginal suppository was administered into the rat's vagina, and the blood was collected periodically (2, 4 and 6 hours after administration of the test preparation).
(§2) The serum was separated, and the calcium level in the serum was determined by using a kit for determination of calcium (Calcium C Test Wako; manufactured by Wako Pure Chemical Industries, Ltd.) (n=3).

[2] = system: Ovariectomized female Wistar rats; experiment: Experiment 2: serum calcium reduction, effect of various suppository bases; conditions: S-970 and citric acid, 20 μg intravaginal
Method: as §1, §2
(§3) In the same manner as in Experiment 1, each intravaginal suppository was administered to the rat's vagina, and the blood was collected periodically (2, 4 and 6 hours after administration of intravaginal suppository), and the calcium level in the serum thereof was determined (n=4).

[3] = system: Ovariectomized female Wistar rats; experiment: Experiment 3: serum calcium reduction, effect of various sucrose fatty acid esters; conditions: with citric acid, 20 μg intravaginal
Method: as §1, §2
In the same manner, there were prepared various sucrose fatty acid esters having the same HLB value but being combined with a different fatty acid (Table B), and four kinds of intravaginal suppositories for rats were prepared by using each 100 mg of sucrose fatty acid ester.
as §3

[4] = system: Ovariectomized female Wistar rats; experiment: Experiment 4: serum calcium reduction, effect of sucrose fatty acid ester concentration; conditions: sucrose fatty acid ester (S-970) 2 w/w % of suppository; citric acid 100 mg per 5.00 g; 20 μg intravaginal; 2 hr
Method: as §1, §2
Human calcitonin (2 mg) was precisely measured, and thereto were added citric acid (100 mg) and Ryoto-Sugar Ester S-970 (50 mg, 100 mg or 400 mg), and the mixture was mixed well.
In the same manner as in Experiment 1, each intravaginal suppository was administered to the rat's vagina, and the blood was collected periodically (2 and 4 hours after administration of intravaginal suppository), and the calcium level in the serum thereof was determined (n=3).

[5] = system: Ovariectomized female Wistar rats; experiment: Experiment 5: serum calcium reduction, sucrose fatty acid ester with various organic acids; conditions: 20 μg intravaginal
Method: as §1, §2
In the same manner as in Experiment 1, each intravaginal suppository was administered to the rat's vagina, and the blood was collected periodically (2, 4 and 6 hours after administration of intravaginal suppository), and the calcium level in the serum thereof was determined (n=5).

[6] = system: Ovariectomized female Wistar rats; experiment: Experiment 6: serum calcium reduction, effect of organic acid concentration; conditions: pH 3.5, S-970 100 mg per 5.00 g, 20 μg intravaginal
Method: as §1, §2
(§4) In the same manner as in Experiment 1, each intravaginal suppository was administered to the rat's vagina, and the blood was collected periodically (2, 4 and 6 hours after administration of intravaginal suppository), and the calcium level in the serum thereof was determined (n=3).

[7] = system: Ovariectomized female Wistar rats; experiment: Experiment 7: serum calcium reduction, effect of pH of the solution in the suppository; conditions: citric acid and S-970, 20 μg intravaginal
Method: as §1, §2, §4

Human calcitonin
Reduction rate (%) of calcium level in the serum ([1]; Control: suppository with human calcitonin only, no citric acid nor ester, 2 hr): 2.6% | Reduction rate (%) of calcium level in the serum ([1]; Control: suppository with human calcitonin only, no citric acid nor ester, 4 hr): 2.2% | Reduction rate (%) of calcium level in the serum ([1]; Control: suppository with human calcitonin only, no citric acid nor ester, 6 hr): 3.8% | Reduction rate (%) of calcium level in the serum ([1]; suppository with citric acid only, 2 hr): 9.5% | Reduction rate (%) of calcium level in the serum ([1]; suppository with citric acid only, 4 hr): 8.0% | Reduction rate (%) of calcium level in the serum ([1]; suppository with citric acid only, 6 hr): 5.7% | Reduction rate (%) of calcium level in the serum ([2]; base Cacao butter, 6 hr): 8.3% | Reduction rate (%) of calcium level in the serum ([2]; base Witepsol S-55, 6 hr): 13.0% | Reduction rate (%) of calcium level in the serum ([2]; base Witepsol W-35, 2 hr): 6.6% | Reduction rate (%) of calcium level in the serum ([3]; Ryoto-Sugar Ester (S-570), HLB 5, stearic acid, 6 hr): 12.0% | Reduction rate (%) of calcium level in the serum ([3]; Ryoto-Sugar Ester L-595 + L-1695 3:2, HLB 9, lauric acid, 2 hr): 11.0% | Reduction rate (%) of calcium level in the serum ([3]; Ryoto-Sugar Ester L-595 + L-1695 3:2, HLB 9, lauric acid, 6 hr): 9.7% | Reduction rate (%) of calcium level in the serum ([3]; Ryoto-Sugar Ester P-070 + P-1670 4:5, HLB 9, palmitic acid, 2 hr): 8.2% | Reduction rate (%) of calcium level in the serum ([3]; Ryoto-Sugar Ester S-370 + S-1670 5:6, HLB 9, stearic acid, 2 hr): 6.9% | Reduction rate (%) of calcium level in the serum ([3]; Ryoto-Sugar Ester S-970 1:0 (control), HLB 9, stearic acid, 2 hr (Table 4)): 6.3% | Reduction rate (%) of calcium level in the serum ([3]; Ryoto-Sugar Ester S-970 1:0 (control), HLB 9, stearic acid, 6 hr (Table 4)): 11.0% | Reduction rate (%) of calcium level in the serum [4]: 8.0% | Reduction rate (%) of calcium level in the serum ([5]; organic acid Citric acid (pH 4) with Ryoto-Sugar Ester R-970, 6 hr): 8.4% | Reduction rate (%) of calcium level in the serum ([5]; organic acid Lactic acid (pH 4) with Ryoto-Sugar Ester R-970, 2 hr): 17.0% | Reduction rate (%) of calcium level in the serum ([5]; organic acid Lactic acid (pH 4) with Ryoto-Sugar Ester R-970, 6 hr): 5.4% | Reduction rate (%) of calcium level in the serum ([5]; organic acid Malic acid (pH 4) with Ryoto-Sugar Ester R-970, 4 hr): 13.0% | Reduction rate (%) of calcium level in the serum ([5]; organic acid Malic acid (pH 4) with Ryoto-Sugar Ester R-970, 6 hr): 7.0% | Reduction rate (%) of calcium level in the serum ([5]; organic acid Tartaric acid (pH 4) with Ryoto-Sugar Ester R-970, 4 hr): 8.0% | Reduction rate (%) of calcium level in the serum ([5]; organic acid Tartaric acid (pH 4) with Ryoto-Sugar Ester R-970, 6 hr): 3.4% | Reduction rate (%) of calcium level in the serum ([6]; citric acid 1 w/w % of suppository, 6 hr): 9.2% | Reduction rate (%) of calcium level in the serum ([6]; citric acid 2 w/w % of suppository, 6 hr): 8.2% | Reduction rate (%) of calcium level in the serum ([6]; citric acid 5 w/w % of suppository, 6 hr): 7.5% | Reduction rate (%) of calcium level in the serum ([6]; citric acid 10 w/w % of suppository, 4 hr): 19.0% | Reduction rate (%) of calcium level in the serum ([6]; citric acid 10 w/w % of suppository, 6 hr): 5.0% | Reduction rate (%) of calcium level in the serum ([7]; pH of the solution in suppository 3.0, 2 hr): 11.0% | Reduction rate (%) of calcium level in the serum ([7]; pH of the solution in suppository 3.0, 4 hr): 22.0% | Reduction rate (%) of calcium level in the serum ([7]; pH of the solution in suppository 3.0, 6 hr): 8.7% | Reduction rate (%) of calcium level in the serum ([7]; pH of the solution in suppository 3.5, 2 hr): 9.4% | Reduction rate (%) of calcium level in the serum ([7]; pH of the solution in suppository 3.5, 6 hr): 8.8% | Reduction rate (%) of calcium level in the serum ([7]; pH of the solution in suppository 4.0, 2 hr): 9.4% | Reduction rate (%) of calcium level in the serum ([7]; pH of the solution in suppository 4.5, 2 hr): 9.5% | Reduction rate (%) of calcium level in the serum ([7]; pH of the solution in suppository 4.5, 6 hr): 9.1% | Reduction rate (%) of calcium level in the serum ([7]; pH of the solution in suppository 5.0, 6 hr): 2.7% | Reduction rate (%) of calcium level in the serum ([7]; pH of the solution in suppository 5.5, 2 hr): 8.1% | Reduction rate (%) of calcium level in the serum ([7]; pH of the solution in suppository 5.5, 6 hr): 4.3%
